# Assay results: patent US20150133373A1, “TRANSMUCOSAL DELIVERY OF ENGINEERED POLYPEPTIDES” (priority 2012, published 2015)
# Experiments:
# [1] = test system: NIH/Swiss mice; test: OGTT DOA (oral glucose tolerance test for duration of action) in NIH/Swiss mice; format: in vivo, mouse; settings: Table 6; 25 nmol/kg IP at t=−1 day; blood glucose at 30 min after glucose gavage ([…]); 4 hr fasted NIH/Swiss female mice
# [2] = test system: ob/ob mice; test: Body weight, glucose and HbA1c in ob/ob mice after a single sc dose; format: in vivo, mouse; settings: single sc injection, non-fasted male ob/ob mice; Cmpd 15 at 250 nmol/kg
# Excerpt: Changes in glucose (% pre-treatment) and in HbA1c (% pre-treatment) are depicted in FIGS. 5B-5C. Points represent mean±s.d. (standard deviation). […] Unless indicated otherwise, blood glucose measures described herein employed a OneTouch® Ultra® device (LifeScan, Inc. Miliptas, Calif.).
# [3] = test system: db/db mice; test: Oral (gavage) delivery, blood glucose lowering in diabetic db/db mice; format: in vivo, mouse; settings: 240 nmol/kg peroral by gavage in PBS/propylene glycol (50:50); 2-hour fasted db/db mice; to 120 minutes
# [4] = test system: C57BL6 female mice; test: Kidney vacuolization (cytoplasmic vacuolation of renal cortical tubular epithelial cells); format: in vivo, mouse; settings: Example 14; sc injection on days 0-6, kidneys on day 7
# Experimental: With some drugs, such as some pegylated proteins, undesirable vacuoles can form in cytoplasm of epithelial cells lining the proximal convoluted tubules, which is an undesirable toxicity measure. […] C57BL6 female mice (n=2 cages, 3 mice/cage) were weighed daily 3 hours prior to lights out Immediately after weighing, on days 0-6 mice were injected subcutaneously with test compound. Mice were sacrificed on day 7 and kidneys submitted for histopathology. […] A positive control compound known to cause vacuole formation was scored as 3. The ABD polypeptide itself scored 0.
# With some drugs, such as some pegylated proteins, undesirable vacuoles can form in cytoplasm of epithelial cells lining the proximal convoluted tubules, which is an undesirable toxicity measure. […] C57BL6 female mice (n=2 cages, 3 mice/cage) were weighed daily 3 hours prior to lights out Immediately after weighing, on days 0-6 mice were injected subcutaneously with test compound. Mice were sacrificed on day 7 and kidneys submitted for histopathology. […] A positive control compound known to cause vacuole formation was scored as 3.
# [5] = Stability in human plasma; format: in vitro ADME; settings: 10 μg/ml in human plasma, 37 degrees C, 5 hours; normalized to a standard (100%)
# [6] = test system: Sprague Dawley rats; test: IVGTT DOA in HSD fed anesthetized rats 5 days post dose; format: in vivo, rat; settings: 240 nmol/kg
# Experimental: In vivo assays for activity and duration of action and pharmacokinetics can be done using known methods. For example, duration can be performed using an oral glucose tolerance test (OGTT) in which the drug is administered to the subject at a desired time point before the glucose is administered orally (to measure drug duration of action; OGTT DOA) and glucose blood levels are measured (e.g. readily done in mice). Activity and duration can also be measured using an intravenous glucose tolerance test (IVGTT) in which the drug is administered to the subject at a desired time point before the glucose is administered IV (IVGTT DOA) and blood glucose levels are measured (e.g. can readily be done in rats). Preferred engineered compounds have a desired effect on blood glucose of at least 24 hours duration after a single dose of drug, preferably at least 3 days, at least 4 days, at least 5 days, at least 6 days, and at least 1 week after the single dose of drug is given.
# The time course of plasma glucose after IVGTT is depicted in FIG. 4A. Integrated (AUC0-60) glucose levels are depicted in the histogram of FIG. 4B. The time course of the change in insulin levels in the test subjects was depicted in FIG. 4C. The integrated insulin levels (AUC0-30) are depicted in FIG. 4D. The time course of body weight change (% change from baseline) is depicted for the test subjects in FIG. 4E. […]
# [7] = PK profile, food intake and body weight after a single subcutaneous dose in normal HSD rats; format: in vivo, rat; settings: 25 nmol/kg subcutaneous
# Experimental: Blood was collected via tail bleed at t=1 hour, 3 hours, 6 hours, 24 hours, 48 hours, 72 hours, 96 hours and 168 hours from fed HSD male rats. Food and body weights were measured daily. […] Points represent mean±sd.
# Pharmacokinetic profile and biological activity of an exemplary engineered polypeptide subcutaneously dosed in normal Harlan Sprague-Dawley (HSD) rats is presented. […] Blood was collected via tail bleed at t=1 hour, 3 hours, 6 hours, 24 hours, 48 hours, 72 hours, 96 hours and 168 hours from fed HSD male rats. Food and body weights were measured daily. […] Points represent mean±sd. In the figures, vehicle is solid square, Cmpd 2-11 is open inverted triangle and Cmpd 2-9 is closed triangle. The plasma maximal concentration in FIG. 18C is equivalent to about 25,000 picomolar.
# [8] = test system: diabetic ob/ob mice; test: Chronic (28 days) treatment of diabetic ob/ob mice: glucose, HbA1c, body weight; format: in vivo, mouse
# Experimental: The time course of the effect of the test compound on body weight, glucose lowering and HbA1c lowering in ob/ob mice was investigated post dose, with values at 4 weeks presented in FIGS. 11A, 11B, 11C and 11D. […] Points represent mean±s.d. (standard deviation). Each test compound was injected IP on day=0 immediately following baseline sample collection in non-fasted male ob/ob mice. […] Unless indicated otherwise, blood glucose measures described herein employed a OneTouch® Ultra® device (LifeScan, Inc. Miliptas, Calif.).
# [9] = 25 and 250 nmol/kg IP twice each week for 28 days
sequence,measurement,setting,value
HGEGTFTSDLSKQLEEEAVRLFIEWLKQGGPSKEIISTGGGGSASLAEAKVLANRELDKYGVSDFYKRLINKAKTVEGVEALKLHILAALP [Cmpd 15],% Glucose Lowering Compared to Vehicle,[1],−21%
same,body weight in ob/ob mice (in words),[2],significant body weight loss
same,"activity after oral dosing (blood glucose, in words)",[3],active when dosed orally
same,Severity score for cytoplasmic vacuolation of renal cortical tubular epithelial cells,[4],0
same,Percent Stable in Human Plasma,[5],96.0%
same,time after administration at which drug activity is present (IVGTT DOA),[6],at least 5 days
same,apparent half-life,[7],54 h
same,glycemic and body weight loss effects compared to the maximally efficacious dose of exendin-4 (in words),"[8]; 25 nmol/kg biw IP vs exendin-4 ~[…] CSI, 28 days",exceeded
same,effect compared to the maximally efficacious dose of exendin-4 (in words),"[8]; 250 nmol/kg biw IP, 28 days",significantly greater than the maximally efficacious dose of exendin-4
same,HbA1c lowering (in words),[8]; [9],significant HbA1c lowering
same,body weight loss (in words),[8]; [9],significant body weight loss
same,HbA1c lowering and body weight loss compared to liraglutide (in words),"[8]; equimolar dosing to liraglutide, data not shown",more effective than liraglutide
same,glucose lowering upon chronic exposure compared to liraglutide (in words),"[8]; equimolar dosing, twice weekly (BIW), ob/ob mice",superior to liraglutide
